Measurements as given in ChEMBL document CHEMBL3853354, “Structure-activity relationships of proline modifications around the tetracyclic-indole class of NS5A inhibitors” (Bioorg Med Chem Lett, 2016).

Assays:
[1] = system: Hepatitis C virus subtype 2b; assay: Inhibition of NS5A in HCV genotype 2b assessed as reduction in replicon RNA level after 3 days by cell based RT-PCR method
[2] = system: Nonstructural protein 5A (Hepatitis C virus), Q5L478 [UNDEFINED MUTATION]; assay: Inhibition of NS5A L31V mutant in HCV genotype 1a assessed as reduction in replicon RNA level after 3 days by cell based RT-PCR method; settings: Hepatitis C virus subtype 1a
[3] = system: T1, Nonstructural protein 5A (Hepatitis C virus), Q5L478 [Y93H]; assay: Inhibition of NS5A Y93H mutant in HCV genotype 1a assessed as reduction in replicon RNA level after 3 days by cell based RT-PCR method; settings: Hepatitis C virus subtype 1a
T1 sequence (whole entry): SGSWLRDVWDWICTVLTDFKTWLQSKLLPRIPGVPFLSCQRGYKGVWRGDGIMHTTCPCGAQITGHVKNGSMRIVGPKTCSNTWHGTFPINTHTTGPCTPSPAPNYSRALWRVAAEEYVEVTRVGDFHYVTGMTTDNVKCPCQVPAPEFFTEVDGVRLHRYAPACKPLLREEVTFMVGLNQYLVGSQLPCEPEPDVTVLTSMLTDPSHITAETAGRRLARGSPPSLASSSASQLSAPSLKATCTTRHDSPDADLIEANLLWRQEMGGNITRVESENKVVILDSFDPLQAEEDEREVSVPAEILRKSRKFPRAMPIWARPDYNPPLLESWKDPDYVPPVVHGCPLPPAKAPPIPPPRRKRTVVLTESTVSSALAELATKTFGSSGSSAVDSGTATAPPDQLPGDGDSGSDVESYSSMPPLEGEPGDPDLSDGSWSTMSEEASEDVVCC

[4] = system: Hepatitis C virus subtype 1a; assay: Inhibition of NS5A in HCV genotype 1a assessed as reduction in replicon RNA level after 3 days by cell based RT-PCR method
[5] = system: Hepatitis C virus subtype 3a; assay: Inhibition of NS5A in HCV genotype 3a assessed as reduction in replicon RNA level after 3 days by cell based RT-PCR method

| SMILES | EC90 [1] [nM] | EC90 [2] [nM] | EC90 [3] [nM] | EC90 [4] [nM] | EC90 [5] [nM] |
| --- | --- | --- | --- | --- | --- |
| COC(=O)N[C@H](C(=O)N1CCC[C@H]1c1ncc(-c2ccc3c(c2)cc2n3C(c3cccc(OC)c3)Oc3cc(-c4cnc([C@@H]5C[C@H]6C[C@H]6N5C(=O)[C@@H](NC(=O)OC)C(C)C)[nH]4)cc(F)c3-2)[nH]1)C(C)C (stereo partly specified) | 49.3 | 0.36 | 10.9 | 0.026 |  |
| COC(=O)N[C@H](C(=O)N1CCC[C@H]1c1ncc(-c2cc(F)c3c(c2)OC(c2cccc(OC)c2)n2c-3cc3cc(-c4cnc([C@@H]5[C@H]6CC[C@H](C6)N5C(=O)[C@@H](NC(=O)OC)C(C)C)[nH]4)ccc32)[nH]1)C(C)C (stereo partly specified) | 51.8 | 0.9 | 26.1 | 0.002 | 0.92 |
| COC(=O)N[C@H](C(=O)N1[C@@H]2CCCC[C@@H]2C[C@H]1c1ncc(-c2cc(F)c3c(c2)OC(c2cccc(OC)c2)n2c-3cc3cc(-c4cnc([C@@H]5C[C@H]6CCCC[C@H]6N5C(=O)[C@@H](NC(=O)OC)C(C)C)[nH]4)ccc32)[nH]1)C(C)C (stereo partly specified) | 21 | 0.51 | 37.6 | 0.18 |  |
| COC(=O)N[C@H](C(=O)N1C(C)CC[C@H]1c1ncc(-c2ccc3c(c2)OC(c2ccccc2)n2c-3cc3cc(-c4cnc([C@@H]5CCC(C)N5C(=O)[C@@H](NC(=O)OC)C(C)C)[nH]4)ccc32)[nH]1)C(C)C (single isomer, unassigned; diastereomer B) | 129 | 5.74 | 158 |  | 51.5 |
| COC(=O)N[C@H](C(=O)N1C[C@@H](OC)C[C@H]1c1ncc(-c2cc(F)c3c(c2)OC(c2cccc(OC)c2)n2c-3cc3cc(-c4cnc([C@@H]5C[C@H](OC)CN5C(=O)[C@@H](NC(=O)OC)C(C)C)[nH]4)ccc32)[nH]1)C(C)C (stereo partly specified) | 5.74 | 0.04 | 8.87 | 0.017 | 0.71 |
| COC(=O)N[C@H](C(=O)N1CC2(CC2)C[C@H]1c1ncc(-c2cc(F)c3c(c2)OC(c2cccc(OC)c2)n2c-3cc3cc(-c4cnc([C@@H]5CC6(CC6)CN5C(=O)[C@@H](NC(=O)OC)C(C)C)[nH]4)ccc32)[nH]1)C(C)C (stereo partly specified) | 38.8 | 0.05 | 23.7 | 0.011 | 0.16 |
| COC(=O)N[C@H](C(=O)N1[C@@H]2C[C@@H]2C[C@H]1c1ncc(-c2cc(F)c3c(c2)OC(c2cccc(OC)c2)n2c-3cc3cc(-c4cnc([C@@H]5C[C@H]6C[C@H]6N5C(=O)[C@@H](NC(=O)OC)C(C)C)[nH]4)ccc32)[nH]1)C(C)C (stereo partly specified) | 22.5 | 1.72 | 0.51 | 0.005 | 0.17 |
| COC(=O)N[C@H](C(=O)N1C[C@H](F)C[C@H]1c1ncc(-c2cc(F)c3c(c2)OC(c2cccc(OC)c2)n2c-3cc3cc(-c4cnc([C@@H]5C[C@H]6C[C@H]6N5C(=O)[C@@H](NC(=O)OC)C(C)C)[nH]4)ccc32)[nH]1)C(C)C (stereo partly specified) | 52.2 | 0.92 | 5.15 | 0.032 |  |
| COC(=O)N[C@H](C(=O)N1C(C)CC[C@H]1c1ncc(-c2ccc3c(c2)OC(c2ccccc2)n2c-3cc3cc(-c4cnc([C@@H]5CCC(C)N5C(=O)[C@@H](NC(=O)OC)C(C)C)[nH]4)ccc32)[nH]1)C(C)C (single isomer, unassigned; diastereomer A) | 75 | 1.72 | 64 |  | 6.14 |
| COC(=O)N[C@H](C(=O)N1CCC[C@H]1c1ncc(-c2ccc3c(c2)cc2n3C(c3cccc(OC)c3)Oc3cc(-c4cnc([C@@H]5C[C@@H](F)CN5C(=O)[C@@H](NC(=O)OC)C(C)C)[nH]4)cc(F)c3-2)[nH]1)C(C)C (stereo partly specified) | 18.8 | 0.34 | 0.55 | < 0.002 | 0.13 |
| COC(=O)N[C@H](C(=O)N1C[C@H](F)C[C@H]1c1ncc(-c2cc(F)c3c(c2)OC(c2cccc(OC)c2)n2c-3cc3cc(-c4cnc([C@@H]5C[C@@H](F)CN5C(=O)[C@@H](NC(=O)OC)C(C)C)[nH]4)ccc32)[nH]1)C(C)C (stereo partly specified) | 39 | 1.59 | 0.065 | 0.006 |  |
| COC(=O)N[C@H](C(=O)N1CCC[C@H]1c1ncc(-c2cc(F)c3c(c2)OC(c2cccc(OC)c2)n2c-3cc3cc(-c4cnc([C@@H]5C[C@@H](F)CN5C(=O)[C@@H](NC(=O)OC)C(C)C)[nH]4)ccc32)[nH]1)C(C)C (stereo partly specified) | 33.6 | 0.29 | 1.81 | 0.01 |  |
| COC(=O)N[C@H](C(=O)N1CCC[C@H]1c1ncc(-c2cc(F)c3c(c2)OC(c2ccccc2)n2c-3cc3cc(-c4cnc([C@H]5[C@@H]6[C@H](CN5C(=O)[C@@H](NC(=O)OC)C(C)C)C6(C)C)[nH]4)ccc32)[nH]1)C(C)C (mixture of isomers) | 337 | 21 | > 100 | 0.02 | > 10 |
| COC(=O)N[C@H](C(=O)N1C[C@H](OC)C[C@H]1c1ncc(-c2cc(F)c3c(c2)OC(c2cccc(OC)c2)n2c-3cc3cc(-c4cnc([C@@H]5C[C@@H](OC)CN5C(=O)[C@@H](NC(=O)OC)C(C)C)[nH]4)ccc32)[nH]1)C(C)C (stereo partly specified) | 90.7 | 0.19 | 0.79 | 0.015 | 5.52 |
| COC(=O)N[C@H](C(=O)N1[C@@H]2CC(F)(F)[C@@H]2C[C@H]1c1ncc(-c2cc(F)c3c(c2)OC(c2cccc(OC)c2)n2c-3cc3cc(-c4cnc([C@@H]5C[C@@H]6[C@@H](CC6(F)F)N5C(=O)[C@@H](NC(=O)OC)C(C)C)[nH]4)ccc32)[nH]1)C(C)C (stereo partly specified) | 58 | 0.078 | 52.6 | 0.017 | 0.29 |
| COC(=O)N[C@H](C(=O)N1CC[C@H](OC)[C@H]1c1ncc(-c2cc(F)c3c(c2)OC(c2cccc(OC)c2)n2c-3cc3cc(-c4cnc([C@@H]5[C@@H](OC)CCN5C(=O)[C@@H](NC(=O)OC)C(C)C)[nH]4)ccc32)[nH]1)C(C)C (stereo partly specified) | 322 | 24.5 | 3.86 | 2.67 | 30 |
| COC(=O)N[C@H](C(=O)N1C[C@H](OC(F)F)C[C@H]1c1ncc(-c2cc(F)c3c(c2)OC(c2cccc(OC)c2)n2c-3cc3cc(-c4cnc([C@@H]5C[C@@H](OC(F)F)CN5C(=O)[C@@H](NC(=O)OC)C(C)C)[nH]4)ccc32)[nH]1)C(C)C (stereo partly specified) | 55.6 |  | 5.27 | 0.021 | 12.9 |
| COC(=O)N[C@H](C(=O)N1CCC[C@H]1c1ncc(-c2cc(F)c3c(c2)OC(c2cccc(OC)c2)n2c-3cc3cc(-c4cnc([C@@H]5C[C@H]6C[C@H]6N5C(=O)[C@@H](NC(=O)OC)C(C)C)[nH]4)ccc32)[nH]1)C(C)C (stereo partly specified) | 19.4 | 0.084 | 1.64 | 0.007 | 0.15 |
| COC(=O)N[C@H](C(=O)N1CC2(C[C@H]1c1ncc(-c3cc(F)c4c(c3)OC(c3cccc(OC)c3)n3c-4cc4cc(-c5cnc([C@@H]6CC7(CN6C(=O)[C@@H](NC(=O)OC)C(C)C)OCCCO7)[nH]5)ccc43)[nH]1)OCCCO2)C(C)C (mixture of isomers) | 114 | 0.2 | 0.44 | 0.018 | 15 |
| COC(=O)N[C@H](C(=O)N1C[C@H](F)C[C@H]1c1ncc(-c2cc(F)c3c(c2)OC(c2cccc(OC)c2)n2c-3cc3cc(-c4cnc([C@@H]5C[Si](C)(C)CN5C(=O)[C@@H](NC(=O)OC)C(C)C)[nH]4)ccc32)[nH]1)C(C)C (stereo partly specified) | 391 | 13.6 | 91.4 | 0.3 |  |
